Biological target: T1, Anthrax Lethal Factor (ALF) (Bacillus anthracis, UniProt P15917)
Assay: not given
Assay type: biochemical
Conditions: not given

T1 sequence (P15917 34-809 limits assumed): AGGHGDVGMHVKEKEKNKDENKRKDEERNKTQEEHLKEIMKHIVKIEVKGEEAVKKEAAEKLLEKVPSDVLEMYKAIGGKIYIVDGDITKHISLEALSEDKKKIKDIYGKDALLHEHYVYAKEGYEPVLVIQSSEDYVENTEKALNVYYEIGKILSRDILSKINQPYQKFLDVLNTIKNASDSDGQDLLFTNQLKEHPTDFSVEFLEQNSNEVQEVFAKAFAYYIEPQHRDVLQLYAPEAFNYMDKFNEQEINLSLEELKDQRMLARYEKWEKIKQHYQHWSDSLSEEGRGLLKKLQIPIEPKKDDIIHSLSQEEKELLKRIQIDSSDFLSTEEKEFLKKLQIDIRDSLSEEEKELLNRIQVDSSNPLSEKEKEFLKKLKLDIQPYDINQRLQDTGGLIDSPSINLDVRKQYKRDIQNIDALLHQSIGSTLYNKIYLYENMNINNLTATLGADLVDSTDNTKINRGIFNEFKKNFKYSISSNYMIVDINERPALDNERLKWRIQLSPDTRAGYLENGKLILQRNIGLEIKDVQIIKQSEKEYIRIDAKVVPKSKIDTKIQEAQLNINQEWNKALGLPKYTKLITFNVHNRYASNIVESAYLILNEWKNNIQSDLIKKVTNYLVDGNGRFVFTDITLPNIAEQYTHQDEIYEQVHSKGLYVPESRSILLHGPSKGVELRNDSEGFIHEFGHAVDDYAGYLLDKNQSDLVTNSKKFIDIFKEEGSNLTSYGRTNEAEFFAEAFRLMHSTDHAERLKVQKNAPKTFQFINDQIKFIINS

Compound	Activity by Gel, % @ 100	Activity by Gel, % @ 200
O=c1c(Cc2ccc(-c3ccccc3)cc2)nc(-c2ccccc2)c(-c2ccccc2)n1O [Compound 11, 3-(4′-phenyl)-benzyl-5,6diphenyl-1-hydroxy-2-oxo-1,2-dihydropyrazine]	2% @ 100	
CC(C)Cc1nc(-c2ccccc2)cn(O)c1=O [Compound 4, 1-hydroxy-3-(2-methylpropyl)-5-phenylhydropyrazin-2-one]		0% @ 200
O=c1c(Cc2ccccc2)nc(-c2ccccc2)c(-c2ccccc2)n1O [Compound 5, 1-hydroxy-5,6-diphenyl-3-benzylhydropyrazin-2-one]		45% @ 200
CCc1nc(C(C)C)c(=O)n(O)c1CC [Compound 2, 3-isopropyl-5,6diethyl-1-hydroxy-2-oxo-1,2dihydropyrazine]		0% @ 200
Cc1c(-c2ccccc2)nc(CC(C)C)c(=O)n1O [Compound 3, 1-hydroxy-6-methyl-3-(2-methylpropyl)-5-phenylhydropyrazin-2-one]		0% @ 200
CC(C)c1nc(-c2ccccc2)c(-c2ccccc2)n(O)c1=O [Compound 1, 3-isoprpyl-5,6dipheny-1-1-hydroxy-2-oxo-1,2-dihydropyrazine]		0% @ 200

Tested on: B anthracis
Assay: not given
Conditions: monkey, in vivo; cited from earlier work

Compound	monkeys that survived a lethal aerosol challenge
penicillin	7 of 10
O=C(O)c1cn(C2CC2)c2cc(N3CCNCC3)c(F)cc2c1=O [ciprofloxacin]	8 of 9

Biological target: T1, Anthrax Lethal Factor (ALF)
Assay: biochemical
Assay type: biochemical
Conditions: not given

Compound	IC50	Activity by plate, % @ 100
O=c1c(Cc2ccc(-c3ccccc3)cc2)nc(-c2ccc(-c3ccccc3)cc2)cn1O [Compound 28, 1-hydroxy-5-(4-phenylphenyl)-3-[(4-phenylphenyl)methyl]hydropyrazin-2-one]	12 µM	
CCCCCc1ccc(-c2cn(O)c(=O)c(Cc3ccccc3)n2)cc1 [Compound 42, 1-hydroxy-5-(4-pentylphenyl)-3-benzylhydropyrazin-2-one]		16% @ 100
O=c1c(Cc2ccccc2)nc(-c2cccs2)cn1O [Compound 16, 1-hydroxy-3-benzyl-5-(2-thienyl)hydropyrazin-2-one]		33% @ 100
O=c1c(Cc2ccc(-c3ccccc3)cc2)nc(-c2ccc(F)cc2)cn1O [Compound 27, 5-(4-fluorophenyl)-1-hydroxy-3-[(4-phenylphenyl)methyl]hydropyrazin-2-one]		12% @ 100
O=c1c(Cc2ccc(-c3ccccc3)cc2)nc(-c2ccc(Cl)c(Cl)c2)cn1O [Compound 44, 5-(3,4-dichlorophenyl)-1-hydroxy-3-[(4-phenylphenyl)methyl] hydropyrazin-2-one]		45% @ 100
O=c1c(Cc2ccccc2)nc(-c2ccc(-c3ccccc3)cc2)cn1O [Compound 17, 1-hydroxy-3-benzyl-5-(4-phenylphenyl)hydropyrazin-2-one]		41% @ 100
O=c1c(Cc2ccc(-c3ccccc3)cc2)nc(-c2ccc(C3CCCCC3)cc2)cn1O [Compound 29, 5-(4-cyclohexylphenyl)-1-hydroxy-3-[(4-phenylphenyl)methyl] hydropyrazin-2-one]		59% @ 100
Cc1cc(-c2cn(O)c(=O)c(Cc3ccc(-c4ccccc4)cc3)n2)ccc1Cl [Compound 45, 5-(4-chloro-3-methylphenyl)-1-hydroxy-3-[(4-phenylphenyl)methyl] hydropyrazin-2-one]		47% @ 100
N#Cc1ccc(-c2cn(O)c(=O)c(Cc3ccc(-c4ccccc4)cc3)n2)cc1 [Compound 33, 4-{4-hydroxy-5-oxo-6-[(4-phenylphenyl)methyl]-4-hydropyrazin-2-yl} benzenecarbonitrile]		51% @ 100
O=c1c(Cc2ccccc2)nc(-c2ccc([N+](=O)[O-])cc2)cn1O [Compound 23, 1-hydroxy-5-(4-nitrophenyl)-3-benzylhydropyrazin-2-one]		7% @ 100
O=c1c(Cc2ccccc2)nc(-c2ccc(C3CCCCC3)cc2)cn1O [Compound 18, 5-(4-cyclohexylphenyl)-1-hydroxy-3-benzylhydropyrazin-2-one]	8 µM	
O=c1c(Cc2ccccc2)nc(-c2ccc(C(F)(F)F)cc2)cn1O [Compound 43, 1-hydroxy-3-benzyl-5-[4-(trifluoromethyl)phenyl]hydropyrazin-2-one]		0% @ 100
Cc1c(-c2ccccc2)nc(Cc2ccc(-c3ccccc3)cc2)c(=O)n1O [Compound 12, 3-(4′-phenyl)-benzyl-5-phenyl-6-methyl-1-hydroxy-2-oxo-1,2-dihydropyrazine]	15 µM	
Cc1ccc(-c2cn(O)c(=O)c(Cc3ccc(-c4ccccc4)cc3)n2)cc1 [Compound 46, 1-hydroxy-5-(4-methylphenyl)-3-[(4-phenylphenyl)methyl]hydropyrazin-2-one]		46% @ 100
O=c1c(Cc2ccccc2)nc(-c2ccc(Cl)c(Cl)c2)cn1O [Compound 39, 5-(3,4-dichlorophenyl)-1-hydroxy-3-benzylhydropyrazin-2-one]		45% @ 100
O=c1c(Cc2ccccc2)nc(-c2ccc(O)cc2)cn1O [Compound 21, 1-hydroxy-5-(4-hydroxyphenyl)-3-benzylhydropyrazin-2-one]		7% @ 100
O=c1c(Cc2ccccc2)nc(-c2ccc(F)cc2)cn1O [Compound 15, 5-(4-fluorophenyl)-1-hydroxy-3-benzylhydropyrazin-2-one]		33% @ 100

Compound	IC50	Activity by plate, % @ 100
O=c1c(Cc2ccc(-c3ccccc3)cc2)nc(-c2ccc(N3CCOCC3)cc2)cn1O [Compound 26, 1-hydroxy-5-(4-morpholin-4-ylphenyl)-3-[(4-phenylphenyl)methyl] hydropyrazin-2-one]		37% @ 100
Cc1ccc(-c2cn(O)c(=O)c(Cc3ccccc3)n2)cc1 [Compound 41, 1-hydroxy-5-(4-methylphenyl)-3-benzylhydropyrazin-2-one]		13% @ 100
CCCCCc1ccc(-c2cn(O)c(=O)c(Cc3ccc(-c4ccccc4)cc3)n2)cc1 [Compound 47, 1-hydroxy-5-(4-pentylphenyl)-3-[(4-phenylphenyl)methyl]hydropyrazin-2-one]		39% @ 100
O=c1c(Cc2ccc(-c3ccccc3)cc2)nc(-c2ccc3c(c2)OCO3)cn1O [Compound 32, 5-(2H-benzo[d]1,3-dioxolen-5-yl)-1-hydroxy-3-[(4-phenylphenyl)methyl] hydropyrazin-2-one]		40% @ 100
O=c1c(Cc2ccccc2)nc(-c2ccc3c(c2)OCO3)cn1O [Compound 22, 5-(2H-benzo[d]1,3-dioxolen-5-yl)-1-hydroxy-3-benzylhydropyrazin-2-one]		39% @ 100
Cc1c(-c2ccccc2)nc(Cc2ccccc2)c(=O)n1O [Compound 6, 1-hydroxy-6-methyl-5-phenyl-3-benzylhydropyrazin-2-one]	70 µM	
O=c1c(Cc2ccccc2)nc(-c2ccccc2)c(-c2ccccc2)n1O [Compound 5, 1-hydroxy-5,6-diphenyl-3-benzylhydropyrazin-2-one]	6 µM	
O=c1c(Cc2ccccc2)nc(-c2ccc(Br)cc2)cn1O [Compound 20, 5-(4-bromophenyl)-1-hydroxy-3-benzylhydropyrazin-2-one]		63% @ 100
O=c1c(Cc2ccc(-c3ccccc3)cc2)nc(-c2ccc3ccccc3c2)cn1O [Compound 30, 1-hydroxy-5-(2-naphthyl)-3-[(4-phenylphenyl)methyl]hydropyrazin-2-one]		54% @ 100
N#Cc1ccc(-c2cn(O)c(=O)c(Cc3ccccc3)n2)cc1 [Compound 24, 4-[4-hydroxy-5-oxo-6-benzyl-4-hydropyrazin-2-yl]benzenecarbonitrile]		41% @ 100
CC(=O)Nc1ccc(-c2cn(O)c(=O)c(Cc3ccccc3)n2)cc1 [Compound 25, N-{4-[4-hydroxy-5-oxo-6-benzyl-4-hydropyrazin-2-yl]phenyl}acetamide]		19% @ 100
O=c1c(Cc2ccccc2)nc(-c2ccc(N3CCOCC3)cc2)cn1O [Compound 14, 1-hydroxy-5-(4-morpholin-4-ylphenyl)-3-benzylhydropyrazin-2-one]		0% @ 100
O=c1c(Cc2ccccc2)nc(-c2ccc3ccccc3c2)cn1O [Compound 19, 1-hydroxy-5-(2-naphthyl)-3-benzylhydropyrazin-2-one]		59% @ 100
O=c1c(Cc2ccccc2)nc(-c2ccccc2)cn1O [Compound 7, 1-hydroxy-5-phenyl-3-benzylhydropyrazin-2-one]	15 µM	
O=c1c(Cc2ccc(-c3ccccc3)cc2)nc(-c2ccc(Br)cc2)cn1O [Compound 31, 5-(4-bromophenyl)-1-hydroxy-3-[(4-phenylphenyl)methyl]hydropyrazin-2-one]	5 µM	
Cc1cc(-c2cn(O)c(=O)c(Cc3ccccc3)n2)ccc1Cl [Compound 40, 5-(4-chloro-3-methylphenyl)-1-hydroxy-3-benzylhydropyrazin-2-one]		18% @ 100
O=c1c(Cc2ccc(-c3ccccc3)cc2)nc(-c2ccc(C(F)(F)F)cc2)cn1O [Compound 48, 1-hydroxy-3-[(4-phenylphenyl)methyl]-5-[4-(trifluoromethyl)phenyl] hydropyrazin-2-one]		25% @ 100
